{"source": "paper PMC7329864", "about": "“Role of water in cyclooxygenase catalysis and design of anti-inflammatory agents targeting two sites of the enzyme” (Scientific Reports, 2020)", "key": {"[1]": {"target": "T1, COX-2 (Homo sapiens, UniProt P35354)", "T1 sequence (P35354 18-604)": "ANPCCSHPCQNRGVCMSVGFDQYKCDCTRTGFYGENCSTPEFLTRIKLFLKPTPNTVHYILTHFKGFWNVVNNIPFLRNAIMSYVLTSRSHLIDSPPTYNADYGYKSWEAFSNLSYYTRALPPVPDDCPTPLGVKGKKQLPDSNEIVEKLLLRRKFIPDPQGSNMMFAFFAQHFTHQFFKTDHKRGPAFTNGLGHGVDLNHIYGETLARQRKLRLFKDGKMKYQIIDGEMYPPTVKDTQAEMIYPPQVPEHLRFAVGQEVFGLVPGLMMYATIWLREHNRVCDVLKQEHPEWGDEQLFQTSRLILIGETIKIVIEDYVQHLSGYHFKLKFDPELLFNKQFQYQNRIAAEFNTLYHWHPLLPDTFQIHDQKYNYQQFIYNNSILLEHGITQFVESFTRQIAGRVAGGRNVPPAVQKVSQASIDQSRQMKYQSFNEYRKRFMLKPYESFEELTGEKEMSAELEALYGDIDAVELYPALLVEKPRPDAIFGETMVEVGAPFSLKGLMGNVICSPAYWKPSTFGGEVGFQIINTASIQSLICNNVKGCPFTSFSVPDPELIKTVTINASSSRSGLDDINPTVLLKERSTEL", "assay": "UV-Vis and fluorescence studies of interaction with COX-2", "assay_type": "binding", "source_text": "In order to support in-silico experiments, the interactions of 1, 13d and 15d with COX-2 were checked with UV–vis and fluorescence spectral techniques. […] The appearance of level-off in the visible region (500–700 nm) was attributed to the Mie scattering due to the formation of aggregates. […] Corroborating the results of molecular modelling studies, the changes in the UV–Vis spectra as well as the fluorescence spectrum of the compound on addition of COX-2 probably occurred due to the HOMO–LUMO interactions between 1 and the enzyme (Figure S26). The linear Stern–Volmer plot of decrease in fluorescence intensity at 567 nm on increasing COX-2 concentration gave Stern–Volmer constant Ksv 3.30 × 10^4 M^-1. The detection limit of the compound for COX-2 was 0.02 nM (Figure S26C,D).\nIn order to support in-silico experiments, the interactions of 1, 13d and 15d with COX-2 were checked with UV-vis and fluorescence spectral techniques. […] The appearance of level-off in the visible region (500-700 nm) was attributed to the Mie scattering due to the formation of aggregates. […] Corroborating the results of molecular modelling studies, the changes in the UV-Vis spectra as well as the fluorescence spectrum of the compound on addition of COX-2 probably occurred due to the HOMO-LUMO interactions between 1 and the enzyme (Figure S27). The linear Stern-Volmer plot of decrease in fluorescence intensity at 567 nm on increasing COX-2 concentration gave Stern-Volmer constant Ksv 3.30x10^4 M^-1. The detection limit of the compound for COX-2 was 0.02 nM (Figure 27C, 27D)."}, "[2]": {"system": "Swiss albino mice", "assay": "Formalin induced pain (flinchings), analgesic activity and mechanistic pretreatments", "assay_type": "in vivo", "experimental": "Since it is known to produce biphasic pain response—the neurogenic pain and the inflammatory phase, 2% formalin injection was given in the right hind paw of the animals (20 µL) and the response was quantified by counting the number of flinching after 30 min of the compound 1 treatment. The inflammatory phase has been reported in the current investigation since the cyclooxygenase inhibitors are known to ameliorate the latter phase. The involvement of cyclooxygenase and lipooxygenase pathways was studied by pretreatment with substance P and nitric oxide pathway was studied by pretreatment with L-arginine and L-NAME as previously described. Anti-inflammatory activity was examined by using carageenan induced paw edema as per the previous report.\nSwiss albino mice of either sex (25–35 g) were used for determining the analgesic and anti-inflammatory activity of the compounds. The animals were maintained at 22 ± 2 °C under 12 h light/12 h dark cycle with free supply of food and water. The study was approved by the IAEC of Guru Nanak Dev University, Amritsar, Punjab, India. A total of six groups of animals with 5 animals in each group were used. The experimental procedure as described in our previous report[52],[57] was used for studying the analgesic and anti-inflammatory activity of the compounds. All the treatments were given intraperitoneally (i.p.).\nMechanistic studies. Three groups of mice with 5 animals in each group were taken for exploring the inhibition of COX and LOX and modulation of nitric oxide pathway. For COX and LOX pathways, the animals were pretreated with substance P, 30 min before administering 1. For nitric oxide pathway, animals were pretreated with nitric oxide precursor, L-arginine and NOS inhibitor, L-NAME, 30 min before administering 1. The details of the protocols are described in previous reports[52],[57]."}}, "data": [{"compound": "O=C1NC(=O)C(=Cc2cn(CCCCCCn3c4ccccc4c(=O)c4ccccc43)c3ccccc23)C(=O)N1", "note": "[Compound 1]", "values": [{"measurement": "decrease in fluorescence intensity (quenching) in the presence of COX-2", "setting": "[1]; addition of COX-2 in Tris–HCl buffer pH 7.25 to solution of compound", "result": "significant quenching"}, {"measurement": "detection limit of the compound for COX-2", "setting": "[1]; fluorescence intensity at 567 nm vs [COX-2], Tris–HCl buffer pH 7.25", "result": 0.02, "unit": "nM"}, {"measurement": "Stern–Volmer constant Ksv", "setting": "[1]; fluorescence quenching at 567 nm by COX-2, 0.5 µM compound, Tris–HCl buffer pH 7.25", "result": 33000, "unit": "M⁻¹"}, {"measurement": "reversal of formalin induced analgesia", "setting": "[2]", "result": 90, "unit": "%"}, {"measurement": "number of flinchings in neurogenic and inflammatory phase of formalin induced pain", "setting": "[2]; 10 mg kg^−1, i.p., 2% formalin 30 min after treatment, comparable to indomethacin", "result": "significant decrease"}, {"measurement": "modulation (attenuation) of analgesic effect by L-NAME pretreatment", "setting": "[2]; L-NAME (NOS inhibitor) 30 min before compound", "result": "did not"}, {"measurement": "modulation of analgesic effect by L-arginine pretreatment", "setting": "[2]; L-arginine (NO precursor) 30 min before compound", "result": "attenuated the analgesic effect of 1 partially"}, {"measurement": "modulation of analgesic effect by Substance P pretreatment", "setting": "[2]; Substance P 30 min before compound, complete reversal not evident", "result": "attenuated the analgesic effect"}]}]}
